Experimental data taken from ChEMBL document CHEMBL4196216, “Dinghupeptins A-D, Chymotrypsin Inhibitory Cyclodepsipeptides Produced by a Soil-Derived Streptomyces” (J Nat Prod, 2018).
Activity calls are given as the source filed them. The rule behind the calls is not given here. Numbered stars: 1 amine (or outer) side, 2 acyl side, 3 side chain; on linkers, the order of the positions; unused ones are H or OH. Bridge positions count the residues as written; N and C are the ends. Square brackets hold non-standard residues; d marks the D form. Peptide text beside a SMILES is read from it. * marks the point of attachment. X1 = CO[C@@H]1CC[C@@H](C(=O)[*:2])N1[*:1]; NMeY = CN[C@@H](Cc1ccc(O)cc1)C(=O)O; Tigloyl = C/C=C(\C)C(=O)*; NHCH2CH2OH = OCCN*

Key:
HeLa [1] = test: Growth inhibition of human HeLa cells up to 50 uM after 72 hrs by MTT assay; format: functional
A549 [2] = test: Growth inhibition of human A549 cells up to 50 uM after 72 hrs by MTT assay; format: functional
MCF7 [3] = test: Growth inhibition of human MCF7 cells up to 50 uM after 72 hrs by MTT assay; format: functional
MCF7 [4] = test: Cytotoxicity against human MCF7 cells after 72 hrs by MTT assay; format: functional, cell-based
[5] = target: Pancreatic elastase (Sus scrofa) (UniProt P08419+P00772); test: Inhibition of porcine pancreas elastase up to 100 uM using N-succinyl-Ala-Ala-Ala-p-nitroanilide as substrate incubated for 15 mins followed by substrate addition measured every 30 secs; format: protein assay
[6] = target: Chymotrypsinogen A (Bos taurus) (UniProt P00766); test: Inhibition of bovine pancreas alpha-chymotrypsin up to 100 uM using N-succinyl-Gly-Gly-Phe-p-nitroanilide as substrate incubated for 15 mins followed by substrate addition measured every 30 secs
HeLa [7] = test: Cytotoxicity against human HeLa cells after 72 hrs by MTT assay; format: functional, cell-based
Trypsin (Sus scrofa) = Trypsin (Sus scrofa) (UniProt P00761); test: Inhibition of porcine pancreas trypsin up to 100 uM using N-alpha-benzoyl-DL-Arg-p-nitroanilide hydrochloride as substrate incubated for 15 mins followed by substrate addition measured every 30 secs
A549 [8] = test: Cytotoxicity against human A549 cells after 72 hrs by MTT assay; format: functional, cell-based
Chymotrypsinogen A [9] = target: T1, Chymotrypsinogen A (Bos taurus, UniProt P00766); test: Competitive inhibition of bovine pancreas alpha-chymotrypsin using N-succinyl-Gly-Gly-Phe-p-nitroanilide as substrate incubated for 15 mins followed by substrate addition measured every 30 secs by double-reciprocal Lineweaver-Burk plot analysis
Chymotrypsinogen A [10] = target: T1, Chymotrypsinogen A; test: Inhibition of bovine pancreas alpha-chymotrypsin using N-succinyl-Gly-Gly-Phe-p-nitroanilide as substrate incubated for 15 mins followed by substrate addition measured every 30 secs
[11] = target: Chymotrypsinogen A (Bos taurus) (UniProt P00766); test: Competitive inhibition of bovine pancreas alpha-chymotrypsin using N-succinyl-Gly-Gly-Phe-p-nitroanilide as substrate incubated for 15 mins followed by substrate addition measured every 30 secs by Dixon plot analysis

Chain of Trypsin (Sus scrofa) (P00761 whole entry): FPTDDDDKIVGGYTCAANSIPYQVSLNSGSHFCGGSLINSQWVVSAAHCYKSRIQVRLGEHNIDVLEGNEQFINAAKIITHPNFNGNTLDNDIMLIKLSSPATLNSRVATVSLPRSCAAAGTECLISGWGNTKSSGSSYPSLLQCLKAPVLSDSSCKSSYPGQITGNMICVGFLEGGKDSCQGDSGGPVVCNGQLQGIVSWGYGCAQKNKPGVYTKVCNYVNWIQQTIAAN

SMILES	growth inhibition (GI) (HeLa [1]) [%]	growth inhibition (GI) (A549 [2]) [%]	growth inhibition (GI) (MCF7 [3]) [%]	Activity (MCF7 [4])	inhibition [5]	inhibition [6]	Activity (HeLa [7])	inhibition (Trypsin (Sus scrofa))	Activity (A549 [8])	Ki (Chymotrypsinogen A [9]) [nM]	IC50 (Chymotrypsinogen A [10]) [nM]	inhibition [11]
C/C=C(\C)C(=O)N[C@@H](CCC(N)=O)C(=O)N[C@@H]1C(=O)N[C@@H](CCC(=O)NCCO)C(=O)N2CCC[C@H]2C(=O)N[C@@H](Cc2ccccc2)C(=O)N(C)[C@@H](Cc2ccc(O)cc2)C(=O)N[C@@H](C)C(=O)O[C@@H]1C (Tigloyl-QTE(NHCH2CH2OH)PF[NMeY]A; ester 2-C)	<30	<30	<30	inactive	inactive	inactive	inactive	inactive	inactive	–	–	–
C/C=C(\C)C(=O)N[C@@H](CCC(N)=O)C(=O)N[C@@H]1C(=O)N[C@@H](CCC(=O)NCCO)C(=O)N[C@H]2CC[C@@H](OC)N(C2=O)[C@@H](Cc2ccccc2)C(=O)N(C)[C@@H](Cc2ccc(O)cc2)C(=O)N[C@@H](C)C(=O)O[C@@H]1C	<30	<30	<30	inactive	inactive	–	inactive	inactive	inactive	630	1100	Active
C/C=C(\C)C(=O)N[C@@H](CCC(N)=O)C(=O)N[C@@H]1C(=O)N[C@@H](CCC(=O)NCCO)C(=O)N2[C@H](OC)CC[C@H]2C(=O)N[C@@H](Cc2ccccc2)C(=O)N(C)[C@@H](Cc2ccc(O)cc2)C(=O)N[C@@H](C)C(=O)O[C@@H]1C (Tigloyl-QTE(NHCH2CH2OH)[X1]F[NMeY]A; ester 2-C)	<30	<30	<30	inactive	inactive	–	inactive	inactive	inactive	–	23100	–
C/C=C(\C)C(=O)N[C@@H](CCC(N)=O)C(=O)N[C@@H]1C(=O)N[C@@H](CCC(=O)NCCO)C(=O)N[C@H]2CC[C@@H](O)N(C2=O)[C@@H](Cc2ccccc2)C(=O)N(C)[C@@H](Cc2ccc(O)cc2)C(=O)N[C@@H](C)C(=O)O[C@@H]1C	<30	<30	<30	inactive	inactive	–	inactive	inactive	inactive	–	2100	–
